These results are taken from patent US20260355151A1, “SPIROCYCLIC DERIVATIVE-CONTAINING SALT OR CRYSTAL FORM, AND PREPARATION METHOD THEREFOR AND USE THEREOF” (SHUJING BIOPHARMA CO., LTD, priority 2022, published 2026).

Counter-ions that a name gives are not always drawn. Like-named read-outs stand apart in the source and are kept apart here.

The target of series [1] is T1, TAAR1 receptor (Homo sapiens, UniProt Q96RJ0).
T1 sequence (Q96RJ0 1-339): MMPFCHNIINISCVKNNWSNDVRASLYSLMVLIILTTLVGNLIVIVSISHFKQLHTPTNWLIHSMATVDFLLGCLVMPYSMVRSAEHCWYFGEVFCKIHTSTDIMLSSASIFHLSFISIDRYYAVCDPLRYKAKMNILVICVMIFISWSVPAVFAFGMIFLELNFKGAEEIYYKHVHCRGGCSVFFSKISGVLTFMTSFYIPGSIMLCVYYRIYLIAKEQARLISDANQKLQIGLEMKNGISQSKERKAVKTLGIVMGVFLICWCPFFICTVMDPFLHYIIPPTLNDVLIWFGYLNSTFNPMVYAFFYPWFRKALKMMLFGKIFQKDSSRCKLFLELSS
The experiment in a line: TAAR1 receptor cAMP agonist test. The series is classed as cell-based. More on the design: Emax: dose or concentration left out as unconfirmed. The text has this: The cAMP detection kit was purchased from Cisbio; the […] cell line stably expressing TAAR1 receptor was constructed by Shanghai Shujing Biotechnology Co., Ltd.; IBMX was purchased from Sigma; Phenethylamine (PEA); ProxiPlate-384 well plate was purchased from PerkinElmer; HBSS was purchased from Thermo Fisher Scientific Company.

In series [2] the target is T2, 5-HT1A receptor (Homo sapiens, UniProt P08908).
T2 sequence (P08908 1-422): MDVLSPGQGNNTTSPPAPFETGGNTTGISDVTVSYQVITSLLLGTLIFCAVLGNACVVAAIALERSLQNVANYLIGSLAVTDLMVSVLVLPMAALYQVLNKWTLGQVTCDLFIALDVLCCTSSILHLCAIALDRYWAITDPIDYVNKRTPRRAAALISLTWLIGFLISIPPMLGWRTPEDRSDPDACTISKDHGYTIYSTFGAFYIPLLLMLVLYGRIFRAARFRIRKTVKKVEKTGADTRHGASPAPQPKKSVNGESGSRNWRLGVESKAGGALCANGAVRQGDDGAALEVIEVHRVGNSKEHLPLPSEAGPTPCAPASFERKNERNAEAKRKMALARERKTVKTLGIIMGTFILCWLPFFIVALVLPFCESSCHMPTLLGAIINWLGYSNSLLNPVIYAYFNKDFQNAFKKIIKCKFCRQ
The experiment in a line: 5-HT1A receptor cAMP agonist test. The series is classed as cell-based. The text has this: The cAMP detection kit was purchased from Cisbio; the HEK293 cell line stably expressing 5-HT1A receptor was constructed by Shanghai Shujing Biotechnology Co., Ltd.; Serotonin, Forskolin and IBMX were purchased from Sigma; ProxiPlate-384-well plates was purchased from PerkinElmer; HBSS was purchased from Thermo Fisher Scientific.
Activation rate (activity %)=(negative control ratio-compound ratio)/(negative control ratio-positive control ratio)×100%

Series [3] deals with high spontaneous activity induced by MK-801 in mice. In words: Inhibition of high spontaneous activity induced by MK-801 in mice. The series is classed as in vivo, male C57Bl/6J mice. How it is done: Compounds to be tested: compounds in the examples of the present application, self-made.
(§1) Experimental animals: 18-22 g male C57Bl/6J mice, purchased from Shanghai Slack Experimental Animal Co., Ltd.
(§2) before the start of the experiment, animals were randomly grouped according to body weight.
before the experiment, the mice were first adapted to the experimental environment for at least 1 hour. That is, the animals were transferred from the breeding room to the laboratory and moved freely in the cage.
(§3) Drug preparation: taking the compound to be tested, adding pure water and performing ultrasonication.
(§4) The animals were randomly divided into blank group, model group, and administration group according to body weight, 9 mice/group, and the detailed administration information is shown in the following table:
(§5) T-30 min oral administration of compound: compound to be tested or solvent (pure water) was administered orally by gavage, and put into test box (test box size length*width*height=27*27*40 cm) immediately after administration, recording the spontaneous activity of the mice within 30 minutes.
The blank control group was injected with normal saline.
(§6) The activities of these animals (movement distance in the test box) were automatically recorded by the camera, and analyzed with ANY MAZE software, and the ED50 values were calculated.

In series [4] the test system is high spontaneous activity induced by PCP in mice. The experiment in a line: Inhibition of high spontaneous activity induced by PCP in mice. The series is classed as in vivo, male C57Bl/6J mice.
Source text: Compounds to be tested: compounds of the examples of the present application, self-made.
Phencyclidine hydrochloride (PCP): purchased from Shanghai Yuansi Standard Science Technology Co., Ltd., specification: 5 g.
as §1, §2
before the experiment, the mice were first adapted to the experimental environment for at least 1 hour. That is, animals were transferred from the feeding room to the laboratory, and moved freely in the cage.
as §3, §4, §5
T0 min intraperitoneal injection of modeling drug: 30 minutes after compound administration, the mice were taken out, and administered with PCP (5 mg/kg) by intraperitoneal injection. The blank control group was injected with pure water. After the administration of PCP, the animals were immediately put back into the test box, and the test was continued for 60 minutes.
as §6

Series [5] can be described thus: Equilibrium solubility in water for 24 hours. The settings on record: deionized water, 37 °C. The class given is physicochemical. The protocol: Investigating the equilibrium solubility of each hydrochloride crystal form of Compound A in water for 24 hours.
Excess samples of hydrochloride crystal form I and hydrochloride crystal form II of Compound A were weighed and placed in different 10 mL centrifuge tubes, and 1 mL of deionized water was added, sealed with a parafilm, shaking at a constant temperature of 37 °C and 150 rpm for 24 hours; after passing through a 0.45 μm organic filter, the sample was diluted and injected for HPLC analysis.

Series [6] is described as follows: Solid stability experiment (high temperature, high humidity, light). The series is classed as physicochemical. The settings on record: for chemical stability: high temperature, high humidity, or illumination, conclusion in words; for degraded at 240 h / degraded at 480 h / degraded at 2040 h: solid, read-out: Increase of total impurities; for degraded at 240 h: day 10; for degraded at 480 h: day 20; for degraded at 2040 h: day 85. How it is done: Investigating the chemical stability of each hydrochloride crystal form of Compound A under high temperature, high humidity, and light conditions.
Appropriate amounts of hydrochloride crystal form I and hydrochloride crystal form II of Compound A were weighed and placed in weighing dishes respectively; three samples for each salt were prepared, and placed respectively in a oven at 60 °C, a drying dish with RH 92.5%, and a stability test chamber with an illumination condition of 5000 lx for 85 days. After mixing all samples evenly at day 0, day 10, day 20, and day 85, samples were taken and dissolved in acetonitrile and water, and the content and impurity changes were detected by HPLC-related substance detection method.

As a reminder, the solubility (thermodynamic) is solubility found after equilibrating the solid with the medium.

Consider `CNC[C@@H]1OCC2(CC2)c2sccc21` (single isomer, unassigned) [Compound A], for which the “agonist effect on the TAAR1 receptors” value in series [1] (conclusion in words) is given as “have an agonist effect on the TAAR1 receptors”. Moreover, the Emax in series [1] (read-out: TAAR1 Max Act %) came out at 95.5%. Further, in series [2] (activation rate, positive control Serotonin, final concentration 10^−6M, read-out: 5-HT1A Max Act %), the Emax at 1 µM came out at 95.2%. Moreover, the “agonistic effect on 5-HT1A receptors” value in series [2] (conclusion in words) is on record as “has agonistic effect on 5-HT1A receptors”. Moreover, the “inhibitory effect compared to SEP-363856” value was “lower minimum effective dose and stronger inhibitory effect” in series [3] (MK-801 model, conclusion in words); “lower minimum effective dose and stronger inhibitory effect” in series [4] (PCP model, conclusion in words). Besides, the minimal effective dose was determined as 10 mg/kg in series [3] (Mus musculus, po, 2.5 h, p.o. 30 min before MK-801 0.3 mg/kg i.p., movement distance, 150 min, read-out: MED (minimum effective dose)) and 0.1 mg/kg in series [4] (Mus musculus, po, 1 h, p.o. 30 min before PCP 5 mg/kg i.p., movement distance, 60 min, read-out: MED (minimum effective dose)). Besides, the “inhibition of high spontaneous activity induced by MK-801” value in series [3] (p.o., conclusion in words) is “can significantly inhibit the high spontaneous activity induced by MK-801 in mice, and the inhibitory effect is gradually enhanced with the increase of the compound dosage, and there is a good dose-dependent relationship”. The “inhibition of high spontaneous activity induced by PCP” value in series [4] (p.o., conclusion in words) is “can significantly inhibit the high spontaneous activity induced by PCP in mice, and the inhibitory effect is gradually enhanced with the increase of the compound dosage, and there is a good dose-dependent relationship”.

In series [5] (water), `CNC[C@@H]1OCC2(CC2)c2sccc21` [Hydrochloride crystal form I, (R)-1-(4′H,6′H-spiro[cyclopropane-1,7′-thieno[3,2-c]pyran]-4′-yl)-N-methylmethylamine] came in with a thermodynamic solubility at 24 h of 155 mg/mL. For the same molecule, the chemical stability result in series [6] is on record as “good chemical stability”. In series [6] (High humidity of RH 92.5%), the degraded at 240 h is less than 0.1%, the degraded at 480 h is less than 0.1% and the degraded at 2040 h is 0.199%. In series [6] (Illumination of 5000 lx), the degraded at 240 h was less than 0.1%, the degraded at 480 h was less than 0.1% and the degraded at 2040 h is less than 0.1%.

In turn, `CNC[C@@H]1OCC2(CC2)c2sccc21` [Hydrochloride crystal form II, (R)-1-(4′H,6′H-spiro[cyclopropane-1,7′-thieno[3,2-c]pyran]-4′-yl)-N-methylmethylamine] registered an Equilibrium solubility in series [5] (1440 min) of 162.30 mg/mL. For the same molecule, in series [6], the chemical stability result is recorded as “good chemical stability”. For the same molecule, in series [6] (High temperature of 60 °C), the degraded at 240 h was less than 0.1%, the degraded at 480 h is less than 0.1% and the degraded at 2040 h was 0.133%.
